Laboratory results reported in patent US9187472B2 (AbbVie Inc., priority 2012, dated 2015).

Assays:
PC3 cells = assay: NAMPT Cell Proliferation Assay; assay type: cell-based; settings: Homo sapiens, PC-3, 120 h, 5 days incubation, cell viability by Cell Titer Glo
In short: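 Seed PC3 at 500 cells/well (RPMI, 10% HI-FBS), attach overnight; add compound, 10-fold series 10 μM → 1×10^−5 μM; incubate 5 d, 37° C/5% CO2; luminescent viability readout; fit % inhibition sigmoidally for IC50.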

[1] = molecular target: NAMPT (human, recombinant, C-terminally His-tagged) (Homo sapiens, UniProt P43490); assay: Time-Resolved Fluorescence Resonance Energy Transfer (TR-FRET) Binding Assay of NAMPT; settings: without substrates; 6.8 nM NAMPT, 200 nM probe, 3 hours equilibration
Chain of NAMPT (human, recombinant, C-terminally His-tagged) (P43490 whole entry): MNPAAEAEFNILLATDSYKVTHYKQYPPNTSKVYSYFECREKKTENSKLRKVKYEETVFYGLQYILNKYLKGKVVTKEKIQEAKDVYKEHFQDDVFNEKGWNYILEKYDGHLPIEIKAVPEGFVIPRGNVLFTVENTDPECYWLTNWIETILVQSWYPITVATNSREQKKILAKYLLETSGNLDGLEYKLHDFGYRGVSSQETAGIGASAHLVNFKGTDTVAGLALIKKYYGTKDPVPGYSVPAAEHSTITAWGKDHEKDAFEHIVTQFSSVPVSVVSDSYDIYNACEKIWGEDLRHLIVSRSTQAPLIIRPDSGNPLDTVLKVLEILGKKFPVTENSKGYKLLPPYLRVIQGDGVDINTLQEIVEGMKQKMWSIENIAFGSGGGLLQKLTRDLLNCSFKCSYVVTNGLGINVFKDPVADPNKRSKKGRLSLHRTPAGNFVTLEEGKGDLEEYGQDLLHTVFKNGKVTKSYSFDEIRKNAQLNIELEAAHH
In short: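 A TR-FRET probe-displacement assay used 6.8 nM His-tagged recombinant human NAMPT, 200 nM Oregon Green 488-labelled nicotinamide-competitive probe and 1 nM Tb-anti-His antibody. Buffer was HEPES pH 7.5 with NaCl, MgCl2, DTT and glycerol, plus 2% DMSO, equilibrated 3 h at room temperature. Em520/Em495 ratios, normalized to controls, gave IC50 by four-parameter logistic fit.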

NAMPT = NAMPT (Homo sapiens, UniProt P43490); assay: TR-FRET Binding Assay of NAMPT with PRPP; settings: with 200 μM PRPP and 2.5 mM ATP; 2 nM NAMPT, 2 nM probe, 16 hours equilibration
Chain of NAMPT (P43490 whole entry): as above
Method: Time-Resolved Fluorescence Resonance Energy Transfer (TR-FRET) Binding Assay of NAMPT with PRPP
Compound handling and data processing were identical to the assay in the absence of substrates (above). Final concentrations were 1× assay buffer, 2% DMSO, 2 nM NAMPT, 2 nM probe, 1 nM Tb-anti-His antibody (Invitrogen # PV5895), 200 μM PRPP and 2.5 mM ATP. Reactions were equilibrated for 16 hours prior to measurement to allow for potential enzymatic modification of test compounds.

Compound | IC50 (PC3 cells) [nM] | IC50 [1] [nM] | IC50 (NAMPT) [nM]
CC(C)CCNC(=O)c1ccc(NC(=O)NCc2ccc3nccn3c2)cc1 [Example 59, 4-{[(imidazo[1,2-a]pyridin-6-ylmethyl)carbamoyl]amino}-N-(3-methylbutyl)benzamide] | 143 | 222 | 0.695
O=C(CC1CCCC1)Nc1ccc(NC(=O)NCc2ccc3nccn3c2)cc1 [Example 60, 2-cyclopentyl-N-(4-{[(imidazo[1,2-a]pyridin-6-ylmethyl)carbamoyl]amino}phenyl)acetamide] | 9.58 | 8.61 | 1.49
CC(C)OCC(=O)N1CCC(CCCCNC(=O)Nc2ccc3nccn3c2)CC1 [Example 62, 1-imidazo[1,2-a]pyridin-6-yl-3-(4-{1-[(propan-2-yloxy)acetyl]piperidin-4-yl}butyl)urea] | 16.5 | 250 | 0.456
O=C(NCCCCC1CCN(C(=O)CC2CC2)CC1)Nc1ccc2nccn2c1 [Example 64, 1-{4-[1-(cyclopropylacetyl)piperidin-4-yl]butyl}-3-imidazo[1,2-a]pyridin-6-ylurea] | 19.8 | 518 | 0.495
O=C(NCCCCC1CCN(C(=O)CCC(F)(F)F)CC1)Nc1ccc2nccn2c1 [Example 65, 1-imidazo[1,2-a]pyridin-6-yl-3-{4-[1-(4,4,4-trifluorobutanoyl)piperidin-4-yl]butyl}urea] | 65.6 | 773 | 0.685
O=C(NCCCCC1CCN(C(=O)C2CCOCC2)CC1)Nc1ccc2nccn2c1 [Example 69, 1-imidazo[1,2-a]pyridin-6-yl-3-{4-[1-(tetrahydro-2H-pyran-4-ylcarbonyl)piperidin-4-yl]butyl}urea] | 16.6 | 676 | 0.268
O=C(NCCCCC1CCN(C(=O)C2CCOC2)CC1)Nc1ccc2nccn2c1 (stereo not drawn) [Example 72, 1-imidazo[1,2-a]pyridin-6-yl-3-{4-[1-(tetrahydrofuran-3-ylcarbonyl)piperidin-4-yl]butyl}urea] | 65.9 | 851 | 0.536
CC(C)Cn1cc(-c2ccc(C(=O)NCc3ccc4nccn4c3)s2)cn1 [Example 75, N-(imidazo[1,2-a]pyridin-6-ylmethyl)-5-[1-(2-methylpropyl)-1H-pyrazol-4-yl]thiophene-2-carboxamide] | 1.49 | 12.2 | 0.445
O=C(Cc1ccc(NC(=O)CC2CCCC2)cc1)Nc1ccc2nccn2c1 [Example 76, 2-cyclopentyl-N-{4-[2-(imidazo[1,2-a]pyridin-6-ylamino)-2-oxoethyl]phenyl}acetamide] | 185 | 993 | 0.739
O=C(CC1CCCO1)Nc1ccc(C(=O)NCc2ccc3nccn3c2)cc1 (stereo not drawn) [Example 77, N-(imidazo[1,2-a]pyridin-6-ylmethyl)-4-[(tetrahydrofuran-2-ylacetyl)amino]benzamide] | 14.2 | 56.1 | 2.88
O=C(CC1CCOC1)Nc1ccc(C(=O)NCc2ccc3nccn3c2)cc1 (stereo not drawn) [Example 78, N-(imidazo[1,2-a]pyridin-6-ylmethyl)-4-[(tetrahydrofuran-3-ylacetyl)amino]benzamide] | 40.7 | 56.5 | 2.4
CC(C)OCC(=O)Nc1ccc(C(=O)NCc2ccc3nccn3c2)cc1 [Example 82, N-(imidazo[1,2-a]pyridin-6-ylmethyl)-4-{[(propan-2-yloxy)acetyl]amino}benzamide] | 67.9 | 357 | 6.42
CC(C)(C)OC(=O)N1CC=C(c2ccc(C(=O)NCc3ccc4nccn4c3)cc2)CC1 [Example 83, tert-butyl 4-{4-[(imidazo[1,2-a]pyridin-6-ylmethyl)carbamoyl]phenyl}-3,6-dihydropyridine-1(2H)-carboxylate] | 24.3 | 899 | 2.3
O=C(CC1CCCC1)Nc1ccc(CNC(=O)c2ccc3nccn3c2)cc1 [Example 84, N-{4-[(cyclopentylacetyl)amino]benzyl}imidazo[1,2-a]pyridine-6-carboxamide] | 762 | 1670 | 10.9
O=C(NCc1ccc2nccn2c1)c1cnc(N2CCc3ccccc3CC2)s1 [Example 85, N-(imidazo[1,2-a]pyridin-6-ylmethyl)-2-(1,2,4,5-tetrahydro-3H-3-benzazepin-3-yl)-1,3-thiazole-5-carboxamide] | 2610 | 4070 | 1.41
O=C(NCc1ccc2nccn2c1)c1cnc(N2CCC(c3ccccc3)C2)s1 (stereo not drawn) [Example 86, N-(imidazo[1,2-a]pyridin-6-ylmethyl)-2-(3-phenylpyrrolidin-1-yl)-1,3-thiazole-5-carboxamide] | 5720 | 2040 | 11.9
CC(C)CCNc1ncc(C(=O)NCc2ccc3nccn3c2)s1 [Example 87, N-(imidazo[1,2-a]pyridin-6-ylmethyl)-2-[(3-methylbutyl)amino]-1,3-thiazole-5-carboxamide] | 6580 | 2050 | 1.35
CC(C)(C)OC(=O)N1CCC(c2ccc(NC(=O)Nc3ccc4nccn4c3)cc2)CC1 [Example 89, tert-butyl 4-{4-[(imidazo[1,2-a]pyridin-6-ylcarbamoyl)amino]phenyl}piperidine-1-carboxylate] | 113 | 667 | 0.383

The remaining compounds from weak to strong by IC50 (PC3 cells), led by results:

IC50 (PC3 cells) [nM] | IC50 [1] [nM] | IC50 (NAMPT) [nM] | Compound
8110 | 2850 | 8.55 | O=C(NCc1ccc2nccn2c1)c1cnc(N2Cc3ccccc3C2)s1 [Example 88, 2-(1,3-dihydro-2H-isoindol-2-yl)-N-(imidazo[1,2-a]pyridin-6-ylmethyl)-1,3-thiazole-5-carboxamide]
66.7 | 754 | 0.348 | O=C(NCCCCC1CCN(C(=O)CN2CCOCC2)CC1)Nc1ccc2nccn2c1 [Example 71, 1-imidazo[1,2-a]pyridin-6-yl-3-{4-[1-(morpholin-4-ylacetyl)piperidin-4-yl]butyl}urea]
59.5 | 605 | 0.426 | O=C(NCCCCC1CCN(C(=O)CC2CCOC2)CC1)Nc1ccc2nccn2c1 (stereo not drawn) [Example 73, 1-imidazo[1,2-a]pyridin-6-yl-3-{4-[1-(tetrahydrofuran-3-ylacetyl)piperidin-4-yl]butyl}urea]
53.8 | 386 | 0.476 | O=C(NCCCCC1CCN(C(=O)C2CCCC2)CC1)Nc1ccc2nccn2c1 [Example 68, 1-{4-[1-(cyclopentylcarbonyl)piperidin-4-yl]butyl}-3-imidazo[1,2-a]pyridin-6-ylurea]
52.6 | 523 | 1.43 | CC(C)(C)OC(=O)N1CCC(CCCCNC(=O)Nc2ccc3nccn3c2)CC1 [Example 58, tert-butyl 4-{4-[(imidazo[1,2-a]pyridin-6-ylcarbamoyl)amino]butyl}piperidine-1-carboxylate]
27.8 | 710 | 0.616 | COCCOCC(=O)N1CCC(CCCCNC(=O)Nc2ccc3nccn3c2)CC1 [Example 70, 1-imidazo[1,2-a]pyridin-6-yl-3-(4-{1-[(2-methoxyethoxy)acetyl]piperidin-4-yl}butyl)urea]
19.4 | 228 | 5.71 | O=C(CN1CCOCC1)Nc1ccc(C(=O)NCc2ccc3nccn3c2)cc1 [Example 80, N-(imidazo[1,2-a]pyridin-6-ylmethyl)-4-[(morpholin-4-ylacetyl)amino]benzamide]
16.8 | 636 | 0.283 | O=C(NCCCCC1CCN(C(=O)C2COCCO2)CC1)Nc1ccc2nccn2c1 (stereo not drawn) [Example 63, 1-{4-[1-(1,4-dioxan-2-ylcarbonyl)piperidin-4-yl]butyl}-3-imidazo[1,2-a]pyridin-6-ylurea]
14 | 356 | 0.222 | O=C(NCCCCC1CCN(C(=O)C2CCCO2)CC1)Nc1ccc2nccn2c1 (stereo not drawn) [Example 74, 1-imidazo[1,2-a]pyridin-6-yl-3-{4-[1-(tetrahydrofuran-2-ylcarbonyl)piperidin-4-yl]butyl}urea]
7.45 | 121 | 6.97 | O=C(CC1CCOCC1)Nc1ccc(C(=O)NCc2ccc3nccn3c2)cc1 [Example 79, N-(imidazo[1,2-a]pyridin-6-ylmethyl)-4-[(tetrahydro-2H-pyran-4-ylacetyl)amino]benzamide]
7.1 | 15.5 | 2.68 | O=C(CCC1CCCC1)Nc1ccc(C(=O)NCc2ccc3nccn3c2)cc1 [Example 81, 4-[(3-cyclopentylpropanoyl)amino]-N-(imidazo[1,2-a]pyridin-6-ylmethyl)benzamide]
6.01 | 78.2 | 0.549 | COCCC(=O)N(CCC(C)C)c1ncc(C(=O)NCc2ccc3nccn3c2)s1 [Example 61, N-(imidazo[1,2-a]pyridin-6-ylmethyl)-2-[(3-methoxypropanoyl)(3-methylbutyl)amino]-1,3-thiazole-5-carboxamide]
